Experimental data as given in US6133467A, “2,6-di-t-butyl-4-[(dimethyl-4-methoxyphenylsilyl)-methyl-oxy]phenol and 2,6-di-t-butyl-4-[(dimethyl-2-methoxy-phenylsilyl)methyloxy]phenol” (Hoechst Marion Roussel, Inc., priority 1998, dated 2000).
Where two headings read alike, the source gives them in different places.

Legend:
[1] = tested on: cholesterol-fed female New Zealand White rabbits (aortic lesions); experiment: Antiatherosclerotic effect: aorta staining (Sudan IV) and lesion quantitation in cholesterol-fed female New Zealand White rabbits; assay type: in vivo, rabbit (New Zealand White; conditions: for Aortic Lesion % of Area, Abdom. (abdominal), as a percent of control: abdominal aorta; for Aortic Lesion % of Area, Abdom. (abdominal), as a percent of control / Aortic Lesion % of Area, Arch, as a percent of control / Aortic Lesion % of Area, Thor. (thoracic), as a percent of control / Aortic Lesion % of Area, Total, as a percent of control: 70 days, diet I 0.15%*, II and III 0.40%; for reduction of total aortic lesions: average, vs control rabbits, 0.15% for Compound I compared to 0.4% for Compound III; for Aortic Lesion % of Area, Thor. (thoracic), as a percent of control: thoracic aorta; for Aortic Lesion % of Area, Total, as a percent of control: total surface area of aorta
Protocol: (§1) Female New Zealand White rabbits (Hazelton, ~2.0-2.3 kg) were fed 0.5% cholesterol/10% corn oil enriched rabbit chow (Purina # 5322) with or without test compound. The experiment was conducted for 70 days. The test compounds were solubilized in 100% ethanol and sprayed on the chow; control chows were sprayed with ethanol. The chows were dried overnight in a chemical fume hood. Rabbits were fed 100 grams food per day; water was available ad libitum. On the last day of the study rabbits (fasted overnight) were bled (~2 mL) from a marginal ear vein periodically to monitor serum cholesterol levels. The rabbits were euthanized on day 70 by carbon dioxide overdose. The total body and liver weights were recorded in grams. Food consumption was recorded as grams.cndot.day^-1. Aliquots of fresh serum were used for clinical chemistries and copper induced thiobarbituric acid reactive substances (TBARS). Aliquots of serum and livers (~5 gram) were frozen at -20° C. for compound and metabolite concentration determination at a later time.
The aortas were dissected from rabbits immediately after they were killed. The aorta from the ascending arch to the iliac bifurcation was excised after debridement of extraneous adipose tissue. Aortas were stored overnight in phosphate buffered saline (PBS)/0.02% sodium azide, pH 7.4, at 4° C. until final debridement. Before staining, aortas were cut open longitudinally and stained with Sudan IV as follows. Sudan IV stain (5.0 g) was added to 500 mL of 70% ethanol, 500 mL of acetone were added, and the solution was stirred overnight at room temperature. The solution was filtered through Whatman #1 filter paper. Aortas were rinsed with 70% ethanol for 10 minutes. They were stained with Sudan IV for 60 min at room temperature, rinsed with 70% ethanol for 5-10 min, and stored in deionized water overnight at 4° C. They were stored in PBS/0.02% sodium azide at 4° C. until imaging could be completed.
The areas containing sudanophilic lesions were quantitated as follows. Aortas were pinned flat onto black plastic sheets, illuminated with several fiber optic light sources, and photographed with a KODAK DCS-420 digital camera mounted on a copy stand. Images were captured and converted to 24 bit color TIFFs with Image Pals image editor software. The resulting images were rescaled to 1024×683 pixels to permit input into the Simple image analysis system and transferred to optical disk storage media. The Simple software was programmed to allow a region of interest to be drawn around the section of the aorta (arch, thoracic, abdominal) which separated the image of the aorta from the pins and the background. the program determined the tissue area in pixels based on pre-selected thresholds of hue, saturation, and intensity. These thresholds were adjusted to recognize the lesion area, and the percent fraction (# lesion pixels/# tissue pixels) was determined. This process was repeated on each portion of the aorta for each rabbit.
(§2) % Control = (Mean, treated group / Mean, control group) × (100)
Total = % area of total surface area of aorta covered with lesions
Arch, Thoracic, Abdominal = % area of each segments of the aorta

[2] = tested on: serum cholesterol and triglycerides; experiment: Clinical chemistries: serum total cholesterol and triglycerides in cholesterol-fed rabbits; assay type: in vivo, rabbit (New Zealand White, female); conditions: for TRIG (triglycerides) as a percent of control / chol tot. (total cholesterol) as a percent of control: serum, 70 days, diet I 0.15%*, II and III 0.40%; for increase of triglycerides: vs control rabbits
Protocol: as §1
Blood was allowed to clot at room temperature for 30 minutes. Serum was obtained after centrifugation for 10 min at 5° C. at 3000 rpm in a Beckman GPKR centrifuge with a GH 3.7 rotor. Fresh serum was analyzed by a COBA MIRA S autoanalyzer (Roche Diagnostics) using Roche diagnostic reagents for total cholesterol (CHOL, kit # 44334) and triglyceride (TG, kit # 44120). Cholesterol and triglycerides were calculated as mg/dL.
as §2
CHOL = total cholesterol mg/dL
TRIG = triglycerides, mg/dL

[3] = tested on: serum lipid oxidation (TBARS); experiment: TBARS assay: copper-induced oxidation of serum lipids from treated rabbits; assay type: in vivo, rabbit (New Zealand White, female); conditions: CuSO4 37° C. 5 hr, diet I 0.15%*, II and III 0.40%
Protocol: as §1
TBARS are a […] indication of the oxidation of lipids in a sample. Mao, S J T et al. Meth. of Enzymol. 234, 517-525 (1994). In this assay copper sulfate was used to initiate the oxidation serum lipids, resulting in the formation of aldehydes, such as malondialdehyde (MDA). Upon incubation with thiobarbituric acid, the absorbance of the aldehydes was detected at 530-540 nm. TBARS values which are lower than control serum values indicate the relative ability of a test compound to inhibit the oxidation. TBARS were measured as follows: 50 μL of serum were mixed with 50 μL of 0.9% saline and 400 μL of a 5 mmol CuSO4 solution and incubated at 37° C. for 5 hr. The reactions were stopped by addition of 1.0 mL of 20% trichloroacetic acid. […] Absorbances were measured at 540 nm using a Biotek model EL311 microplate reader. The nmoles of MDA produced were calculated from a standard curve of 0 to 10 nmoles of MDA prepared from malonaldehyde bis(dimethyacetal). […]
TBARS = thiobarbituric acid reactive substances, expressed as nmole MDA

[4] = Body weight and liver weight/body weight in cholesterol-fed rabbits; assay type: in vivo, rabbit (New Zealand White, female); conditions: II and III 0.40%; for body wt. as a percent of control: 70 days in 0.5% cholesterol/10% corn oil chow, diet I 0.15% (0.4% × 7 days, 0% × 7 days, then 0.15% × 56 days); for lw/bw (liver weight / body weight) as a percent of control: 70 days, diet I 0.15%*
Protocol: as §1, §2
Body wt. = weight in kilograms
liver wt. = weight in kilograms
LW/BW = (liver weight / body weight)

[5] = HPLC quantitation of serum and liver compound and metabolite concentration; assay type: in vivo, rabbit (New Zealand White, female); conditions: for concentration at 1680 h: rabbit, po; for Serum Parent: parent compound concentration: 100800 min
Protocol: as §1
Serum and liver concentrations of parent compounds and the metabolites, bisphenol and diphenoquinone, were determined by reverse phase HPLC using a Waters 990 Powerline system. Mao, S. J. T. et al., Meth. of Enzymol. 234, 517-525 (1994); Satoni, D. K. and Coutant, J. E., J. Chrom. 380, 401-406 (1986). Livers (1 gram) were homogenized with 5.0 mL PBS, pH 7.4, using a Polytron tissue homogenizer at setting 5 for 20-30 seconds. Serum or liver homogenates were extracted as follows: 100 μL of serum or homogenate were added to 2.0 mL diethyl ether: ethanol (3:1) while vortexing the tube. The sample tubes were capped and centrifuged for 10 min at 5° C. at 3500 rpm in a Beckman GPKR centrifuge with a GH 3.7 rotor. The supernatants were transferred to clean tubes and dried under N2. Samples were reconstituted with 200 μL of acetonitrile:hexane:0.1 M ammonium acetate (90:6.5:3.5, by vol.). Then, 100 μL were injected onto a Waters Deltapak C18-300 Å column, and eluted with an 83% acetonitrile: 17% water mobile phase at a flow rate of 1.5 mL/min. Absorbances at the wavelengths of 240, 254, and 420 nm were recorded. Compound concentrations were calculated from known quantities of authentic parent compounds after correction for recovery; the range of recovery from spiked samples was 40 to 100%. The lowest detectable limit for this class of compounds was ~0.5 μg/mL. Concentrations were calculated as of μg/mL serum and of […].
Sample compound concentrations in serum and liver are presented as
μg/mL or μg/g, respectively.
Serum Parent = parent compound concentration as μg/mL of serum
Serum Bis = bisphenol concentration as μg/mL of serum
Serum Quin = diphenoquinone concentration as […]
Liver Parent = parent compound concentration as μg/g liver
Liver Bis = bisphenol concentration as μg/g liver
Liver Quin = diphenoquinone concentration as μg/g liver
0 = value less than detectable limit of HPLC system

[6] = liver, diet I 0.15%*, II and III 0.40%, read-out: Liver Parent: parent compound concentration
[7] = liver, read-out: concentration of parent compound in livers
[8] = serum, diet I 0.15% (0.4% × 7 days, 0% × 7 days, then 0.15% × 56 days), II and III 0.40%, read-out: Serum Parent: parent compound concentration
[9] = serum, diet I 0.15% (0.4% × 7 days, 0% × 7 days, then 0.15% × 56 days), II and III 0.40%

SMILES	Aortic Lesion % of Area, Abdom. (abdominal), as a percent of control [1]	Aortic Lesion % of Area, Arch, as a percent of control [1]	reduction of total aortic lesions [1]	Aortic Lesion % of Area, Thor. (thoracic), as a percent of control [1]	Aortic Lesion % of Area, Total, as a percent of control [1]	TRIG (triglycerides) as a percent of control [2]	chol tot. (total cholesterol) as a percent of control [2]	increase of triglycerides [2]	TBARS (nmole MDA) as a percent of control [3]	body wt. as a percent of control [4]	lw/bw (liver weight / body weight) as a percent of control [4]	concentration at 1680 h [5, 6]	concentration at 1680 h [5, 7]	concentration at 1680 h [5, 8]	bisphenol and diphenoquinone metabolites in serum and livers [5]	Serum Parent: parent compound concentration [5, 9]
COc1ccc([Si](C)(C)COc2cc(C(C)(C)C)c(O)c(C(C)(C)C)c2)cc1 [Compound I, 2,6-Di-t-butyl-4-[(dimethyl-4-methoxyphenylsilyl)methyloxy]phenol]	10%	5%	96%	3%	4%	22%	28%	did not show an undesirable increase of triglycerides	56%	95%	89%	44900 ng/g	44.9 µg/mL	7.3 µg/mL	none of the bisphenol and diphenoquinone metabolites of Compounds I or II were detected in either serum or livers	7.3 µg/mL
COc1ccccc1[Si](C)(C)COc1cc(C(C)(C)C)c(O)c(C(C)(C)C)c1 [Compound II, 2,6-di-t-butyl-4-[(dimethyl-2-methoxyphenylsilyl)methyloxy]phenol]	50%	56%	–	44%	55%	100%	79%	did not show an undesirable increase of triglycerides	90%	98%	86%	80900 ng/g	80.9 µg/mL	93.3 µg/mL	none of the bisphenol and diphenoquinone metabolites of Compounds I or II were detected in either serum or livers	93.3 µg/mL
CC(C)(C)c1cc(SC[Si](C)(C)c2ccccc2)cc(C(C)(C)C)c1O [Compound III, 2,6-di-t-butyl-4-[(dimethylphenylsilyl)methylthio]phenol, reference compound]	30%	50%	57%	30%	43%	783%	64%	–	18%	89%	98%	323000 ng/g	323 µg/mL	182 µg/mL	undesirably high concentrations in both serum and livers	182.4 µg/mL
